In the NIST ThermoML archive (doi:10.1016/j.tca.2014.05.028):

Test: xn = mol fraction of the nth substance listed
Details: 101 kPa, Liquid; for viscosity: Falling or rolling sphere viscometry; for mass density: Vibrating tube method

CCC[N+]1(C)CCCC1.[Br-] [1-methyl-1-propylpyrrolidinium bromide] + O
Details | mass density, 298.15 K [kg/m3] | mass density, 303.15 K [kg/m3] | mass density, 308.15 K [kg/m3] | mass density, 313.15 K [kg/m3] | mass density, 318.15 K [kg/m3] | viscosity, 298.15 K [mPa·s] | viscosity, 303.15 K [mPa·s] | viscosity, 308.15 K [mPa·s] | viscosity, 313.15 K [mPa·s] | viscosity, 318.15 K [mPa·s]
x1 = 0.0315 | 1060.85 | 1058.76 | 1056.5 | 1054.11 | 1051.58 | 1.604 | 1.412 | 1.216 | 1.077 | 0.972
x1 = 0.0664 | 1111.9 | 1109.17 | 1106.34 | 1103.44 | 1100.44 | 2.896 | 2.5 | 2.115 | 1.841 | 1.633
x1 = 0.0983 | 1147.67 | 1144.55 | 1141.38 | 1138.15 | 1134.88 | 5.311 | 4.504 | 3.451 | 2.994 | 2.652
x1 = 0.1376 | 1178.4 | 1175.05 | 1171.66 | 1168.23 | 1164.78 | 8.527 | 7.082 | 5.766 | 4.851 | 4.16
x1 = 0.1685 | 1196.91 | 1193.47 | 1190.01 | 1186.52 | 1183 | 12.41 | 10.2 | 8.237 | 6.89 | 5.833
x1 = 0.2138 | 1217.36 | 1213.89 | 1210.41 | 1206.9 | 1203.37 | 20.56 | 16.41 | 12.97 | 10.66 | 8.968
x1 = 0.2382 | 1225.96 | 1222.51 | 1219.05 | 1215.56 | 1212.05 | 26.01 | 20.59 | 16.15 | 13.14 | 10.98
x1 = 0.27 | 1235.84 | 1232.42 | 1228.99 | 1225.54 | 1222.08 | 35.47 | 27.62 | 21.43 | 17.24 | 14.27
x1 = 0.3143 | 1245.39 | 1242.02 | 1238.64 | 1235.25 | 1231.85 | 50.7 | 39.02 | 29.75 | 23.61 | 19.29
x1 = 0.3535 | 1251.89 | 1248.57 | 1245.24 | 1241.91 | 1238.59 | 69.94 | 53.25 | 40.25 | 31.53 | 25.42
x1 = 1 | 1259.96 | 1255.92 | 1251.9 | 1247.91 | 1243.94 | – | – | – | – | –
